Patent publication US5312831A, “Urethanes and ureas that induce cytokine production” (American Cyanamid Company, priority 1993, dated 1994)
“Also recorded” adds a separate entry of the source. Like-named read-outs stand apart in the source and are kept apart here.

Experiments:
GCSF = experiment: Serum GCSF production in mice (NFS-60 bioassay); type: in vivo, mouse; conditions: for GCSF: 4 hours, 10 mice/group
Experimental: Description of Biological Assays Interleukin 6(IL-6) assay for structure function analysis--Test compounds are dissolved in water and administered subcutaneously in 0.2 ml to deliver a dose of 0.1-10 mg/kg. The less soluble compounds are first dissolved in 100% ethanol and then brought to the appropriate concentration in water. Four hours post injection, the mice are bled and the serum is retrieved. The IL-6 dependent cell line 7TDl is used to assay serial dilutions of sera for IL-6 content. 7TDl cells (1×10^4) are placed in microtiter wells and incubated at 37° C. for 72 hours with standard recombinant mouse IL-6 or with dilutions of serum to be tested. Over the last 6 hours, the cells are pulsed with ^3 H-Tdr (μci). Cells are then harvested and the degree of proliferation determined by the uptake of ^3 H-Tdr as measured by liquid scintillation spectrometry. The concentration of IL-6 in serum is calculated from standard curves utilizing recombinant IL-6 from R&D Systems Inc. and are reported in units of IL-6 activity as defined by the manufacturer.
Granulocyte colony stimulating factor (GCSF) assay--A bioassay for GCSF is performed in an identical fashion to the IL-6 assay except that the GCSF dependent cell line NFS-60 is used in place of the IL-6 dependent 7TDI cell line.
Mice (10/group) are given a single subcutaneous injection of test compoun
and bled 4 hours later. GCSF levels in serum are determined by bioassay
using the GCSF dependent cell line NFS60.

neutrophils [1] = experiment: Neutrophil recovery in 5-FU treated mice; type: in vivo, mouse; conditions: for Neutrophils/cu. mm.: day 7 post 5FU 150 mg/kg, 10 mice/group, vehicle 157 ± 52
Experimental: (§1) Circulating Neutrophil Assay--Mice are treated with 5-FU (150 mg/kg) and beginning 24 hrs. later, treated daily with the test compound. Mice are bled daily by retroorbital puncture in heparinized capillary tubes. Circulating WBC counts are determined by Coulter counter. Blood smears are stained with Wright-Geimsa solution and the percentage circulating neutrophils determined by differential counting under a microscope.
(§2) 5-Fluorouracil (5-FU) Induced Neutropenia In Mice--Mice are treated ip with 150 mg/kg of the chemotherapy agent 5-FU which induces a severe loss of neutrophils in the peripheral blood 5-6 days later. Twenty-four hrs. after the dose, treatment with the test compounds is initiated. The effect of the test compounds on recovery of neutrophil progenitor cells in the bone marrow is determined by the CFU-GM assay. The recovery of circulating neutrophils is followed by differential staining of the peripheral blood.
*Data from 10 mice/group on day 7 post treatment with 150 mg/kg of 5FU.
Beginning 24 hrs. after 5FU dose, mice were treated daily with test
compound at concentrations indicated. Neutrophil count for normal mice (n
**Mice treated with 5FU and vehicle only.

bone marrow CFU-GM = experiment: Bone marrow CFU-GM in 5-FU treated mice; type: in vivo, mouse
Experimental: Colony forming assays Granulocyte-Macrophage (CFU-GM)--Mice are treated with 150 mg/kg of 5-Fu and treatment with test compound begins 24 hrs. later. On consecutive days, mice are killed by cervical dislocation and the femurs removed under sterile conditions. Femurs are flushed with 1 ml of ice cold medium (Iscove's supplemented with 20% FCS, 1% penicillin-streptomycin, 1% glutamine and 5×10^-5 M 2-mercaptoethanol). Bone marrow cells (5×10^5) are then plated in 12×75 mm tissue culture plates in 3 ml of warm ararose (3%) in Iscove's medium with 100 Units/ml of recombinant mouse GM-CSF purchased from Genzyme (Boston, Mass.). Plates are incubated for 7 days at 37° C. in 5% CO2. After 7 days, colonies of 50 cells or greater are enumerated under a dissecting microscope. 5-Fluorouracil (5-FU) Induced Neutropenia In Mice--Mice are treated ip with 150 mg/kg of the chemotherapy agent 5-FU which induces a severe loss of neutrophils in the peripheral blood 5-6 days later. Twenty-four hrs. after the dose, treatment with the test compounds is initiated. The effect of the test compounds on recovery of neutrophil progenitor cells in the bone marrow is determined by the CFU-GM assay. […]

IL-6 = experiment: Serum IL-6 in 5-FU treated monkeys; type: in vivo, cynomolgous monkeys
Experimental: Groups of 3 cynomolgous monkeys are treated with 5FU at 125 mg/kg and
beginning 24 hours later treated with test compound s.c. at 0.05 mg/kg.
The data reported are from sera taken 4 hours after test compound

[2] = system: bone marrow progenitor cells; experiment: Delta assay: expansion of bone marrow progenitor cells in vitro, with c-kit ligand (KL); type: cell-based, mouse; conditions: for fold induction at 0.5 µg/mL: Mus musculus, Bone marrow cell, 168 h, 7 day in vitro incubation, read-out: Fold Increase in CFU
Experimental: Delta Assay--Mice are treated with a single dose of 5-FU (150 mg/kg ip). Twenty-four hours later, bone marrow cells are removed and split into 2 aliquots. […] After 14 days, the number of colonies is determined (CFU-1). A second aliquot of cells is placed in liquid culture with single growth factors or drugs or combinations of each to assess the ability of these agents to expand the colony forming cell pool. After 7 days in liquid culture, these cells are harvested and plated in soft agar with IL-1 and GM-CSF as with the first aliquot. After 14 days the number of colonies in the second aliquot is determined (CFU-2). The ratio or delta is calculated as CFU-2/CFU-1 and this ratio is used to ascertain the ability of the growth factors and/or drugs used in the liquid phase to induce growth of the colony forming cells (CFU) or differentiation of pre-CFU to CFU.
Bone marrow cells from 5-FU treated mice are used to enrich for early progenitor cells. The cells are split into 2 aliquots as described in the methods section for the "delta assay." The fold increase is determined by measuring the effect of a 7 day in vitro incubation of the cells with tissue culture medium plus test compound and/or growth factor KL on colony forming dells (CFU). The number of CFUs are then compared with colony formation of the fresh bone marrow cells that were not incubated in vitro to determine the fold increase. Test compound is used in vitro at 0.5 μg/ml.

neutrophils [3] = experiment: Oral dosing: neutrophil recovery in 5-FU treated mice; type: in vivo, mouse; conditions: for Neutrophils/cu. mm.: day 6 after 5-FU 150 mg/kg, 0 dose 178 ± 64
Experimental: as §1, §2
Groups of 5 mice are treated with 150 mg/kg of 5-FU. One day later, daily oral dosing with test compounds begins and continues for 10 days. […]

In the case of `CCCCCCC(=O)N[C@@H](C(=O)O)[C@@H](C)OC(=O)N[C@@H](CCC[C@@H](N)C(=O)O)C(=O)N[C@H](C)C(=O)O` [Example 28, [R-(R*,R*)]-N-(R)-6-carboxy-N^2-[[2-carboxy-1-methyl-2-[(1-oxoheptyl)amino]ethoxy]carbonyl]-L-lysyl]-D-Alanine], the GCSF (GCSF; 1.56 μg/kg single s.c.) is reported as 442 ± 52 pg/mL, the GCSF (GCSF; 3.12 μg/kg single s.c.) is reported as 470 ± 59 pg/mL and the GCSF (GCSF; 6.25 μg/kg single s.c.) is reported as 644 ± 267 pg/mL. For the same compound, the GCSF (GCSF; 12.50 μg/kg single s.c.) was 1342 ± 289 pg/mL, the GCSF (GCSF; 25.00 μg/kg single s.c.) was 3352 ± 907 pg/mL and the GCSF (GCSF; 50.00 μg/kg single s.c.) was 1249 ± 138 pg/mL. For the same compound, the “GCSF induction in the serum of mice (in words)” value (GCSF; injected mice) was “induce GCSF in the serum of injected mice”, the Neutrophils/cu. mm. (neutrophils [1]; 1.56 μg/kg daily) was 722 ± 199 /cu. mm and the Neutrophils/cu. mm. (neutrophils [1]; 3.12 μg/kg daily) was 424 ± 115 /cu. mm. The Neutrophils/cu. mm. (neutrophils [1]; 6.25 μg/kg daily) was 758 ± 249 /cu. mm, the Neutrophils/cu. mm. (neutrophils [1]; 12.50 μg/kg daily) was 1314 ± 267 /cu. mm and the Neutrophils/cu. mm. (neutrophils [1]; 25.00 μg/kg daily) was 1804 ± 408 /cu. mm. The Neutrophils/cu. mm. (neutrophils [1]; 50.00 μg/kg daily) was 1716 ± 284 /cu. mm, the Neutrophils/cu. mm. (neutrophils [1]; 100.00 μg/kg daily) was 2613 ± 364 /cu. mm and the “neutrophil recovery in 5-FU treated mice (in words)” value (neutrophils [1]; mouse, in vivo) was “enhances the recovery of peripheral blood neutrophils; also recorded: induce neutrophil recovery in 5-FU treated mice”. The CFU-GM/femur (bone marrow CFU-GM; 0.1 mg/kg daily s.c., day 3 after 5FU 150 mg/kg, normal 30184 ± 3677, 5-FU only 805 ± 512) was 6055 ± 534 CFU-GM/femur, the “CFU-GM in the bone marrow (in words)” value (bone marrow CFU-GM; 5-FU treated mice) was “increase of CFU-GM” and the “Serum IL-6” value (IL-6; 0.05 mg/kg s.c., 5FU 125 mg/kg, sera 4 hours after treatment, 5-FU only 0) was 2579 ± 318 Units/ml. For the same compound, the “IL-6 production in the serum of 5-FU treated primates (in words)” value (IL-6; monkey, in vivo) was “induces IL-6 and GCSF production”, the fold induction at 0.5 µg/mL ([2]; KL + test compound (0.5 μg/ml)) was 158 and the fold induction at 0.5 µg/mL ([2]; test compound alone, 0.5 μg/ml, medium alone 0) was 1.3. For the same compound, the “synergy with c-kit ligand (KL) on growth of bone marrow progenitor cells (in words)” value ([2]; in vitro) was “acts synergistically”, the Neutrophils/cu. mm. (neutrophils [3]; 0.1 mg/kg daily oral) was 81 ± 35 /cu. mm and the Neutrophils/cu. mm. (neutrophils [3]; 1 mg/kg daily oral) was 765 ± 209 /cu. mm. For the same compound, the Neutrophils/cu. mm. (neutrophils [3]; 10 mg/kg daily oral) was 1391 ± 350 /cu. mm and the “neutrophil recovery in 5-FU treated mice when given orally (in words)” value (neutrophils [3]; oral) was “active in accelerating neutrophil recovery”.
